26 molecules from US20070275984A1, “Novel Thieno-Pyridine and Thieno-Pyrimidine Derivatives and Their Use as Positive Allosteric Modulators of Mglur2-Receptors” (JANSSEN PHARMACEUTICA N.V., priority 2004, published 2007) can be followed below.

Values joined by “and” are separate entries in the source; they are usually repeats but may differ in a detail not shown here. Equal entries are not always repeated.

In one data set the target is T1, native rat mGluR2 (Rattus norvegicus, UniProt P31421).
T1 construct: from tissue; host or cells: cerebral cortex of Sprague-Dawley rats (membrane preparation)
The experiment in a line: [35S]GTPγS binding assay using cortical rat brain membranes, potentiation of a selective mGluR2 agonist. The format is biochemical. The note with it: for Activity: left-ward shift of agonist mGluR2 concentration-response curve: rat cortical membranes, selective mGluR2 agonist such as LY379268, in the presence of 3 or 10 μM of positive allosteric modulator. An excerpt:
The [^35S]GTPγS binding is a functional membrane-based assay used to study G-protein coupled receptor (GPCR) function. This method is using a binding assay to assess the initial step in receptor-mediated G protein activation in membranes prepared from cells expressing recombinant GPCR or using membranes from discrete area of the rat brain. In brief, the assay is measuring the activation of G proteins by catalyzing the exchange of guanosine 5′-diphosphate (GDP) by guanosine 5′-triphosphate (GTP) at the α subunit. The GTP-bounded G proteins dissociate into two subunits, Gα-GTP and Gβγ, which in turn regulate intracellular enzymes and ion channels. GTP is rapidly hydrolysed by the Gα-subunit (GTPases) and the G protein is deactivated and ready for new GTP exchange cycle (Harper (1998) Curr Protoc Pharmacol 2.6.1-10, John Wiley & Sons, Inc.). [^35S]GTPγS, a non-hydrolyzed analogue of GTP, is used for this purpose.
This method is widely used to study receptor activation of G protein in membranes prepared from rat brain tissue, including mGluR2 receptors (Schaffhauser et al 2003, Pinkerton et al, 2004). mGluR2 receptors are expressed in the rat brain cortex (Mutel et al (1998) J. Neurochem. 71:2558-64; Schaffhauser et al (1998) Mol. Pharmacol. 53:228-33) and are coupled to Gαi-protein, a preferential coupling for this method.
[^35S]GTPγS binding assay using cortical rat brain membranes preparation was used and adapted from Schaffhauser et al ((2003) Mol. Pharmacol. 4:798-810) for the detection of the positive allosteric modulator properties of the compounds of this invention on native rat mGluR2. In order to eliminate the possible interference with group III Gαi-protein coupled mGluRs (mGluR4, mGluR7, mGluR8; mGluR6 is not expressed in the cortex (Laurie et al (1997) Neuropharmacol. 36:145-52)), the potentiation of the response to a selective mGluR2 agonist, such as DCG-IV (Cartmell et al. (1998) Br. J. Pharmacol. 123(3):497-504) or LY379268 (Monn et al. (1999) J. Med. Chem 42:1027-40), by compounds described in the present invention was performed.
Membrane preparation. Cortices were dissected out from brains of 200-300 g Sprague-Dawley rats (Charles River Laboratories, L'Arbresle, France). Tissues were homogenized in 6 volumes (vol/wt) of 10% sucrose at 4° C. using a glass-teflon homogenizer. The homogenate was centrifuged at 1250 g for 10 min, and the supernatant was centrifuged at 40,000 g for 20 min (4° C.). The pellet was resuspended in 25 ml water using a Polytron disrupter (Kinematica AG, Luzern, Switzerland) and centrifuged for 10 min at 3000 g. (4° C.). The supernatant was centrifuged at 40,000 g for 20 min (4° C.). The supernatant was discarded and the pellet washed twice by resuspension in 10 volumes 5 mM HEPES-KOH, pH 7.4. The homogenate was frozen and thawed twice and centrifuged at 40,000 g for 20 min. The final pellet was resuspended in 5 mM HEPES-KOH, pH 7.4 and stored at −80° C. before its use. Protein concentration was determined by the Bradford method (Bio-Rad protein assay, Reinach, Switzerland) with bovine serum albumin as standard.
[^35S]GTPγS binding assay. Measurement of mGluR2 positive allosteric modulators properties in rat cortical membranes was performed as follows: rat cortical membrane (1.5 μg) were incubated in 96-well microplates for 15 min at 30° C. in assay buffer (50 mM HEPES pH 7.4, 100 mM NaCl, 5 mM MgCl2, 10 μM GDP, 10 μg/ml saponin, EGTA 0.2 mM) with increasing concentrations of positive allosteric modulator (from 1 nM to 10 μM) and a minimal concentration of DCG-IV or LY379268, a selective mGluR2 agonist, that has been determined in previous experiments and that corresponds to the EC20, a concentration that gives 20% of the maximal response of the agonist, and is in accordance to published data (Pin et al. (1999) Eur. J. Pharmacol. 375:277-294). […]
On the technique in general: GTPγS resists hydrolysis and so accumulates on activated G proteins.

T1 sequence (P31421 19-872): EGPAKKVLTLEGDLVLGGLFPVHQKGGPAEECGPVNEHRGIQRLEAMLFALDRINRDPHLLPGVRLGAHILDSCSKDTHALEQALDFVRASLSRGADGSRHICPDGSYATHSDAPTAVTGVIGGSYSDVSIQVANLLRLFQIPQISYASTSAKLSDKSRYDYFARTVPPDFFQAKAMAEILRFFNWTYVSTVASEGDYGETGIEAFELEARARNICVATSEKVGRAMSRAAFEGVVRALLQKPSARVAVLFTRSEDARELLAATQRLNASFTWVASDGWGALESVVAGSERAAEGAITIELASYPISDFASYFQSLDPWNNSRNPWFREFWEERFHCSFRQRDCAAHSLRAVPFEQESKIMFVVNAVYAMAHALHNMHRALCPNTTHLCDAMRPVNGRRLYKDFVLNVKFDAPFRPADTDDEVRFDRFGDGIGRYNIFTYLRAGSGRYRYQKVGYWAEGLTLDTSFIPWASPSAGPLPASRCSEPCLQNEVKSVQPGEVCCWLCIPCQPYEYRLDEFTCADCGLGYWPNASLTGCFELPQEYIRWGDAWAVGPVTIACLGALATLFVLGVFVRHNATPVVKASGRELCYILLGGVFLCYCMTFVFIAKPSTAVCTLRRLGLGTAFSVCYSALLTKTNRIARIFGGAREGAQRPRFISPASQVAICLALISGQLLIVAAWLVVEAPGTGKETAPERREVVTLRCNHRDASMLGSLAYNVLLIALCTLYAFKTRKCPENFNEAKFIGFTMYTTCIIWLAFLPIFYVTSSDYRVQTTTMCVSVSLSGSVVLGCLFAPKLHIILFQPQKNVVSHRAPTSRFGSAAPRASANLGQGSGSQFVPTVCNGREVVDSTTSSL

Turning to `Cc1nc(NCc2ccccc2)c2cc(C)sc2n1` [Compound 5, N-benzyl-2,6-dimethylthieno[2,3-d]pyrimidin-4-amine], the melting point is 124.2 °C. Also, the “Activity: left-ward shift of agonist mGluR2 concentration-response curve” value (from here on “Activity: left-ward shift”) on native rat mGluR2 is “+ (left-ward shift of agonist mGluR2 concentration-response curve [<2-fold])”.
On the same counts, the results for `COc1nc(NCCc2ccccc2)c2cc(C)sc2n1` [Compound 15, 2-methoxy-6-methyl-N-phenethylthieno[2,3-d]pyrimidin-4-amine] are 138.5 °C and “+++ (left-ward shift of agonist mGluR2 concentration-response curve [>3.5-fold])”.
Molecule `COc1ccc(CCNc2nc(C)nc3sc(C)cc23)cc1` [Compound 28, N-(4-methoxyphenethyl)-2,6-dimethylthieno[2,3-d]pyrimidin-4-amine] gave a melting point of 129 °C. Also, the “increase of the [GTPi^5S] binding induced by 50 nM of DCG-IV” value on native rat mGluR2 (10 μM compound together with mGluR2 agonist, compared to agonist alone, Figure B) is “significantly potentiated”. Further, on native rat mGluR2 (10 μM compound, compared to buffer value (0% of maximal response), Figure B), the “agonistic activity when tested in the absence of 50 nM DCG-IV” value is “no statistically significant agonistic activity”.
In turn, `Cc1nc(NCCc2ccc(N)cc2)c2cc(C)sc2n1` [Compound 42, N-(4-aminophenethyl)-2,6-dimethylthieno[2,3-d]pyrimidin-4-amine] registered a melting point of 127 °C. Further, the “Activity: left-ward shift” value at native rat mGluR2 is “++ (left-ward shift of agonist mGluR2 concentration-response curve [2- to 3.5-fold])”.
On the same counts, the results for `CC(=O)Nc1ccc(CCNc2nc(C)nc3sc(C)cc23)cc1` [Compound 43, N-(4-(2-(2,6-dimethylthieno[2,3-d]pyrimidin-4-ylamino)ethyl)-phenyl)acetamide] are 248 °C and “++ (left-ward shift of agonist mGluR2 concentration-response curve [2- to 3.5-fold])”.
For the molecule `Cc1nc(NCCc2ccc(OCc3nn[nH]n3)cc2)c2cc(C)sc2n1` [Compound 46, N-(4-((2H-tetrazol-5-yl)methoxy)phenethyl)-2,6-dimethylthieno[2,3-d]pyrimidin-4-amine], the melting point amounted to 205 °C. Further, at native rat mGluR2, the “Activity: left-ward shift” value was “+++ (left-ward shift of agonist mGluR2 concentration-response curve [>3.5-fold])”.
The corresponding values for `Cc1nc(NCCc2cccnc2)c2cc(C)sc2n1` [Compound 49, 2,6-dimethyl-N-(2-(pyridin-3-yl)ethyl)thieno[2,3-d]pyrimidin-4-amine] are 138 °C and “+ (left-ward shift of agonist mGluR2 concentration-response curve [<2-fold])”.
Consider `OCc1cc2c(NCCc3ccccc3)ncnc2s1` [Compound 58, (4-(phenethylamino)thieno[2,3-d]pyrimidin-6-yl)methanol], for which the melting point was 155 °C and 155 to 155.5 °C. Moreover, on native rat mGluR2, the “Activity: left-ward shift” value is “++ (left-ward shift of agonist mGluR2 concentration-response curve [2- to 3.5-fold])”.
`COc1ccc(CCNc2nc(C)nc3sc(Cc4ccccc4)cc23)cc1` [Compound 61, N-(4-methoxyphenethyl)-6-benzyl-2-methylthieno[2,3-d]pyrimidin-4-amine]: the “Activity: left-ward shift” value on native rat mGluR2 is “++ (left-ward shift of agonist mGluR2 concentration-response curve [2- to 3.5-fold])”.
The molecule `CCc1cc2c(NCCc3ccc(OC)cc3)ncnc2s1` [Compound 70, N-(4-methoxyphenethyl)-6-ethylthieno[2,3-d]pyrimidin-4-amine] showed a melting point of 133 °C.
On the same count and under the same terms, then `CCc1cc2c(NCCc3ccc(OC)cc3)nc(C)nc2s1` [Compound 71, N-(4-methoxyphenethyl)-6-ethyl-2-methylthieno[2,3-d]pyrimidin-4-amine], with 102 °C.
Same read-out and setting: in the case of `CCc1cc2c(NCCc3ccc(OC)c(OC)c3)ncnc2s1` [Compound 72, N-(3,4-dimethoxyphenethyl)-6-ethylthieno[2,3-d]pyrimidin-4-amine] it was 124 °C; in that of `CCc1cc2c(NCCc3ccc(OC)c(OC)c3)nc(C)nc2s1` [Compound 73, N-(3,4-dimethoxyphenethyl)-6-ethyl-2-methylthieno[2,3-d]pyrimidin-4-amine], 78 °C; in that of `CCCc1cc2c(NCc3cccc(OC)c3)ncnc2s1` [Compound 77, N-(3-methoxybenzyl)-6-propylthieno[2,3-d]pyrimidin-4-amine], 118 °C.
The same measure, in the same setting: then `CCCc1cc2c(NCCc3ccccc3)nc(NC)nc2s1` [Compound 81, N2-methyl-N4-phenethyl-6-propylthieno[2,3-d]pyrimidine-2,4-diamine], with 162 °C; and `CCCc1cc2c(NCCc3ccc(O)cc3)nc(OC)nc2s1` [Compound 83, 4-(2-(2-methoxy-6-propylthieno[2,3-d]pyrimidin-4-ylamino)ethyl)phenol], with 79 °C.
For the molecule `CCCc1cc2c(NCCc3ccc(O)cc3)nc(Cl)nc2s1` [Compound 84, 4-(2-(2-chloro-6-propylthieno[2,3-d]pyrimidin-4-ylamino)ethyl)phenol], the melting point was 135 °C.
The same measure, in the same setting: then `CCCc1cc2c(NCCc3ccc(OC)cc3)ncnc2s1` [Compound 85, N-(4-methoxyphenethyl)-6-propylthieno[2,3-d]pyrimidin-4-amine], with 102 °C.
With `CCCc1cc2c(NCCc3ccc(OC)cc3)nc(OC)nc2s1` [Compound 86, N-(4-methoxyphenethyl)-2-methoxy-6-propylthieno[2,3-d]pyrimidin-4-amine], the melting point worked out at 92 °C.
The same measure, in the same setting: then `CCCc1cc2c(NCCc3ccc(OC)c(OC)c3)ncnc2s1` [Compound 87, N-(3,4-dimethoxyphenethyl)-6-propylthieno[2,3-d]pyrimidin-4-amine], with 128.5 °C.
The same measure, in the same setting: then `CCCc1cc2c(NCCc3ccc(OCc4nnn[nH]4)cc3)nc(OC)nc2s1` [Compound 88, N-(4-((1H-tetrazol-5-yl)methoxy)phenethyl)-2-methoxy-6-propylthieno[2,3-d]pyrimidin-4-amine], with 181 °C; and `CCCc1cc2c(NCCNc3ccccc3)ncnc2s1` [Compound 89, N-(2-(phenylamino)ethyl)-6-propylthieno[2,3-d]pyrimidin-4-amine], with 68 °C; and `COc1cccc(CNc2ncnc3sc(C(C)C)cc23)c1` [Compound 91, N-(3-methoxybenzyl)-6-isopropylthieno[2,3-d]pyrimidin-4-amine], with 65 °C.
Same read-out and setting: then `CC(C)c1cc2c(NCCc3ccccc3)ncnc2s1` [Compound 92, 6-isopropyl-N-phenethylthieno[2,3-d]pyrimidin-4-amine], with 117.5 °C; and `COc1ccc(CCNc2ncnc3sc(C(C)C)cc23)cc1` [Compound 93, N-(4-methoxyphenethyl)-6-isopropylthieno[2,3-d]pyrimidin-4-amine], with 108.5 °C.
In turn, `CCCCc1cc2c(NCCc3ccccc3)ncnc2s1` [Compound 94, 6-butyl-N-phenethylthieno[2,3-d]pyrimidin-4-amine] showed a melting point of 95 °C.

The term melting point denotes the temperature, or range, at which the solid turns liquid.
